Blank lines part the entries; values can stand above or below the compound they belong to.
Legend:
[1] = LNP average particle size and polydispersity by dynamic light scattering (Malvern Zetasizer); assay type: physicochemical
Procedure, shortened: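 LNPs diluted in PBS to a count rate of about 200–400 kcps and measured by dynamic light scattering. Size given as intensity-weighted Z-average diameter, with number-average diameter and polydispersity index also reported.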

[2] = tested on: B2M; assay: B2M editing in mouse liver by NGS after i.v. LNP delivery of Cas9 mRNA and sgRNA; assay type: in vivo; conditions: for Editing (%) of B2M in mouse liver: Example 52: LNP single dose 0.1 mg/kg i.v., sgRNA G650:Cas9 mRNA 1:1, NGS; for Editing (%) of B2M in mouse liver / Editing (%) B2M liver / % Editing B2M in mouse liver: CD-1 female mice; for Editing (%) B2M liver: 6 days post-dose; for Editing (%) B2M liver / % Editing B2M in mouse liver: G650 1:1; for % Editing B2M in mouse liver: 7 days post-dose
Method: Preparations of various LNP compositions were prepared with amine lipids. In assays for percent liver editing in mice, Cas9 mRNA and chemically modified sgRNA were formulated in LNPs, at either a 1:1 w/w ratio or a 1:2 w/w ratio. LNPs are formulated with a composition of a given ionizable lipid (e.g. an amine lipid), DSPC, cholesterol, and PEG-2k-DMG, with a 6.0 N:P ratio.
LNPs were administered to mice by a single dose at 0.1 mg/kg, unless otherwise noted and genomic DNA was isolated for NGS analysis as described below.
CD-1 female mice, ranging from 6-10 weeks of age were used in each study. Animals were weighed and grouped according to body weight for preparing dosing solutions based on group average weight. LNPs were dosed via the lateral tail vein in a volume of 0.2 mL per animal (approximately 10 mL per kilogram body weight). The animals were periodically observed post dose for adverse effects for at least 24 hours post dose. Animals were euthanized at 6 or 7 days by exsanguination via cardiac puncture under isoflurane anesthesia. Blood was collected into serum separator tubes or into tubes containing buffered sodium citrate for plasma as described herein. For studies involving in vivo editing, liver tissue was collected from each animal for DNA extraction and analysis.
Cohorts of mice were measured for liver editing by Next-Generation Sequencing (NGS).
In brief, to quantitatively determine the efficiency of editing at the target location in the genome, genomic DNA was isolated and deep sequencing was utilized to identify the presence of insertions and deletions introduced by gene editing.
PCR primers were designed around the target site (e.g., B2M), and the genomic area of interest was amplified. Additional PCR was performed according to the manufacturer's protocols (Illumina) to add the necessary chemistry for sequencing. The amplicons were sequenced on an Illumina MiSeq instrument. The reads were aligned to the […] after eliminating those having low quality scores. The resulting files containing the reads were mapped to the reference genome (BAM files), where reads that overlapped the target region of interest were selected and the number of wild type reads versus the number of reads which contain an insertion, substitution, or deletion was calculated.
The editing percentage (e.g., the “editing efficiency” or “percent editing”) is defined as the total number of sequence reads with insertions or deletions over the total number of sequence reads, including wild type.
CD-1 female mice were dosed i.v. at 0.1 mpk or 0.3 mpk. […] For animals dosed with G282 targeting TTR, blood and the liver were collected and serum TTR and editing were measured. For animals dosed with G650 targeting B2M, liver was collected and editing was measured.

[3] = Table 12, Example 56: LNP, G282
[4] = Table 16, Example 59: LNP, G282 1:1
[5] = Table 20, Example 61: LNP, G282 1:1
[6] = Table 24, Example 63: LNP, G282 1:1
[7] = Table 3, Example 52: LNP, Cas9 mRNA + sgRNA (G650) 1:1 w/w, N:P 6.0
[8] = Table 5, Example 53: LNP with gRNA G282 (TTR)
[9] = Table 5, Example 53: LNP with gRNA G650 (B2M)
[10] = Table 8, Example 54: LNP, G650 (B2M) 1:1
[11] = Table 10, Example 55: LNP, G282 1:1
[12] = Table 14, Example 58: LNP, G282 1:1
[13] = Table 18, Example 60: LNP, G502 1:2
[14] = Table 22, Example 62: LNP, G282 1:2
[15] = Table 26, Example 64: LNP, G282 1:1
[16] = Example 53 text: 0.1 mpk vs 0.3 mpk

SMILES: CCCCCCCCCOC(=O)CCCCCCCN(CCO)CCCCCCCC(=O)OC(CCCCCCCC)CCCCCCCC [Compound 18, heptadecan-9-yl 8-((2-hydroxyethyl)(8-(nonyloxy)-8-oxooctyl)amino)octanoate, reference compound]
Num Ave Size (nm) [1, 3]: 69.77 nm
PDI [1, 3]: 0.112
Z-Ave Size (nm) [1, 3]: 106.6 nm
Num Ave Size (nm) [1, 4]: 53.06 nm
PDI [1, 4]: 0.093
Z-Ave Size (nm) [1, 4]: 75.79 nm
Num Ave Size (nm) [1, 5]: 52.25 nm
PDI [1, 5]: 0.083
Z-Ave Size (nm) [1, 5]: 74.67 nm

SMILES: CCCCC/C=C\C/C=C\CCCCCCCC(=O)OCC(COC(=O)CCC(OCCCCCCCC)OCCCCCCCC)COC(=O)OCCCN(CC)CC (stereo not drawn) [Compound 19, 3-((4,4-bis(octyloxy)butanoyl)oxy)-2-(((((3-(diethylamino)propoxy))-carbonyl)oxy)methyl)propyl (9Z,12Z)-octadeca-9,12-dienoate, reference compound]
Num Ave Size (nm) [1, 7]: 64.97 nm
PDI [1, 7]: 0.056
Z-Ave Size (nm) [1, 7]: 82.71 nm
Num Ave Size (nm) [1, 8]: 62.86 nm
PDI [1, 8]: 0.015
Z-Ave Size (nm) [1, 8]: 79.83 nm
Num Ave Size (nm) [1, 9]: 64.97 nm
PDI [1, 9]: 0.056
Z-Ave Size (nm) [1, 9]: 82.71 nm
Num Ave Size (nm) [1, 10]: 64.97 nm
PDI [1, 10]: 0.056
Z-Ave Size (nm) [1, 10]: 82.71 nm
Num Ave Size (nm) [1, 11]: 64.95 nm
PDI [1, 11]: 0.025
Z-Ave Size (nm) [1, 11]: 81.76 nm
Num Ave Size (nm) [1, 3]: 63.19 nm
PDI [1, 3]: 0.047
Z-Ave Size (nm) [1, 3]: 79.18 nm
Num Ave Size (nm) [1, 12]: 71.1 nm
PDI [1, 12]: 0.007
Z-Ave Size (nm) [1, 12]: 84.99 nm
Num Ave Size (nm) [1, 4]: 71.49 nm
PDI [1, 4]: 0.02
Z-Ave Size (nm) [1, 4]: 86.84 nm
Num Ave Size (nm) [1, 13]: 73.15 nm
PDI [1, 13]: 0.033
Z-Ave Size (nm) [1, 13]: 88.6 nm
Num Ave Size (nm) [1, 5]: 71.49 nm
PDI [1, 5]: 0.02
Z-Ave Size (nm) [1, 5]: 86.84 nm
Num Ave Size (nm) [1, 14]: 73.15 nm
PDI [1, 14]: 0.033
Z-Ave Size (nm) [1, 14]: 88.6 nm
Num Ave Size (nm) [1, 6]: 66 nm
PDI [1, 6]: 0.03
Z-Ave Size (nm) [1, 6]: 82 nm
Num Ave Size (nm) [1, 15]: 65 nm
PDI [1, 15]: 0.03
Z-Ave Size (nm) [1, 15]: 83 nm
Editing (%) of B2M in mouse liver [2]: 12.0%
Editing (%) B2M liver ([2]; Example 53: 0.1 mpk i.v.): 25.5%
Editing (%) B2M liver ([2]; Example 53: 0.3 mpk i.v.): 43.4%
dose response of B2M editing in liver [2, 16]: increased editing of B2M in liver significantly between the 0.1 mpk and 0.3 mpk doses
% Editing B2M in mouse liver ([2]; Example 54: 0.1 mpk i.v.): 13%
% Editing B2M in mouse liver ([2]; Example 54: 0.3 mpk i.v.): 44%
dose response of B2M editing in liver ([2]; Example 54 text: 0.1 mpk vs 0.3 mpk, 7 days): increased editing at the 0.3 mpk dose compared to the 0.1 mpk dose

SMILES: CCCCCCCCCOC(=O)CCCCCCCN(CCO)CCCCCCCC(OCCCCCCCC)OCCCCCCCC [Compound 1, nonyl 8-((8,8-bis(octyloxy)octyl)(2-hydroxyethyl)amino octanoate]
Num Ave Size (nm) [1, 7]: 57.04 nm
PDI [1, 7]: 0.105
Z-Ave Size (nm) [1, 7]: 79.49 nm
Num Ave Size (nm) [1, 8]: 61.19 nm
PDI [1, 8]: 0.008
Z-Ave Size (nm) [1, 8]: 75.77 nm
Num Ave Size (nm) [1, 9]: 65.11 nm
PDI [1, 9]: 0.028
Z-Ave Size (nm) [1, 9]: 80.96 nm
Num Ave Size (nm) [1, 11]: 55.38 nm
PDI [1, 11]: 0.05
Z-Ave Size (nm) [1, 11]: 69.94 nm
Num Ave Size (nm) [1, 12]: 55.38 nm
PDI [1, 12]: 0.05
Z-Ave Size (nm) [1, 12]: 69.94 nm
Num Ave Size (nm) [1, 4]: 57.78 nm
PDI [1, 4]: 0.04
Z-Ave Size (nm) [1, 4]: 72.21 nm
Num Ave Size (nm) [1, 13]: 58.01 nm
PDI [1, 13]: 0.037
Z-Ave Size (nm) [1, 13]: 74.5 nm
Num Ave Size (nm) [1, 14]: 58.01 nm
PDI [1, 14]: 0.037
Z-Ave Size (nm) [1, 14]: 74.5 nm
Num Ave Size (nm) [1, 6]: 52 nm
PDI [1, 6]: 0.06
Z-Ave Size (nm) [1, 6]: 70 nm
Editing (%) of B2M in mouse liver [2]: 36.8%
Editing (%) B2M liver ([2]; Example 53: 0.1 mpk i.v.): 41.0%
Editing (%) B2M liver ([2]; Example 53: 0.3 mpk i.v.): 62.9%
B2M editing in the liver compared with Compound 19 ([2]; Example 53 text: 0.1 and 0.3 mpk): higher B2M editing in the liver than Compound 19 at each dose
dose response of B2M editing in liver [2, 16]: increased editing of B2M in liver significantly between the 0.1 mpk and 0.3 mpk doses

Second part, the compound after the results:

Num Ave Size (nm) [1, 6]: 42 nm
PDI [1, 6]: 0.30
Z-Ave Size (nm) [1, 6]: 78 nm
SMILES: CCCCCCCCOC(CCCCCCCN(CCO)CCCCCCCC(=O)OC(CC)CCCCCC)OCCCCCCCC (stereo not drawn) [Compound 28, nonan-3-yl 8-((8,8-bis(octyloxy)octyl)(2-hydroxyethyl)amino)octanoate]

Num Ave Size (nm) [1, 12]: 54.25 nm
PDI [1, 12]: 0.056
Z-Ave Size (nm) [1, 12]: 68.72 nm
Num Ave Size (nm) [1, 14]: 44.93 nm
PDI [1, 14]: 0.072
Z-Ave Size (nm) [1, 14]: 62.89 nm
SMILES: CCCCCCCCOC(CCCCCCCN(CCO)CCCCCCCC(=O)OC(CC)CCCCCCCC)OCCCCCCCC (stereo not drawn) [Compound 17, undecan-3-yl 8-((8,8-bis(octyloxy)octyl)(2-hydroxyethyl)amino)octanoate]

Source: US20260225997A1, “IONIZABLE AMINE LIPIDS” (Intellia Therapeutics, Inc., priority 2018, published 2026)
